Experimental data from patent publication US9926324B2, “Heteroaromatic compounds as PI3 kinase modulators and methods of use” (Calitor Sciences, LLC, priority 2012, dated 2018).
Like-named read-outs stand apart in the source and are kept apart here.

Legend:
[1] = molecular target: T1, PI3K p110α/p85α (h) (Homo sapiens, UniProt P42336); test: PI3K p110α/p85α (h) non-radioactive HTRF assay; assay type: biochemical
T1 construct: purchased Millipore UK Ltd (assay service)
Method: PI3K p110α/p85α (h) is incubated in assay buffer containing 10 μM phosphatidylinositol 4,5-bisphosphate and MgATP (concentration as required). The reaction is initiated by the addition of the ATP solution. After incubation for 30 minutes at room temperature, the reaction is stopped by the addition of stop solution containing EDTA and biotinylated phosphatidylinositol-3,4,5-trisphosphate. Finally, detection buffer is added, which contains europium-labelled anti-GST monoclonal antibody, GST-tagged GRP1 PH domain and streptavidin allophycocyanin. The plate is then read in timeresolved fluorescence mode and the homogenous time-resolved fluorescence (HTRF) signal is determined according to the formula HTRF=10000×(Em665 nm/Em620 nm).
(§1) The kinase assays described herein were performed at Millipore UK Ltd, Dundee Technology Park, Dundee DD2 1SW, UK.

[2] = Pharmacokinetic profiles in rats after intravenous and oral administration; assay type: in vivo; conditions: for F: oral dose generally 5 or 10 mg/kg; for AUC(0-t) / half-life / Vd: rat, plasma; for Vd: read-out: Vss
Method: The compounds disclosed herein are assessed in pharmacokinetic studies in mice, rats, dogs or monkeys. The compounds are administered as a water solution, 2% HPMC+1% TWEEN® 80 in water solution, 5% DMSO+5% solutol in saline, 4% MC suspension or capsule. For the intravenous administration, the animals are generally given at 1 or 2 mg/kg dose. For the oral (p.o.) dosing, mice and rats are generally given 5 or 10 mg/kg dose, and dogs and monkeys are generally given 10 mg/kg dose. The blood samples (0.3 mL) are drawn at 0.25, 0.5, 1.0, 2.0, 3.0, 4.0, 6.0, 8.0, 12 and 24 h time points or 0.083, 0.25, 0.5, 1.0, 2.0, 4.0, 6.0, 8.0 and 24 h time points and centrifuged at 3,000 or 4000 rpm for 2 to 10 min. The plasma solutions are collected, stored at −20° C. or −70° C. until analyzed by LC/MS/MS as described above.

[3] = molecular target: T2, mTOR (h) (Homo sapiens, UniProt P42345); test: mTOR (h) kinase assay (33P-ATP, filter); assay type: biochemical
T2 construct: purchased Millipore UK Ltd (assay service)
Method: mTOR (h) is incubated with 50 mM HEPES pH 7.5, 1 mM EDTA, 0.01% Tween 20, 2 mg/mL substrate, 3 mM Manganese Chloride and [γ-^33P-ATP] (specific activity approx. 500 cpm/pmol, concentration as required). The reaction is initiated by the addition of the MnATP mix. After incubation for 40 minutes at room temperature, the reaction is stopped by the addition of 3% phosphoric acid solution. 10 μL of the reaction is then spotted onto a P30 filtermat and washed three times for 5 minutes in 75 mM phosphoric acid and once in methanol prior to drying and scintillation counting.
as §1

[4] = Compound stability in rat liver microsomes; assay type: in vitro ADME; conditions: for half-life at 5 μM / CLint scaled at 5 μM: pH 7.4; for half-life at 5 μM: read-out: Rat T1/2; for CLint scaled at 5 μM: rat liver microsomes, in vivo CLint extrapolated
Method: (§2) Human or rat liver microsomes incubations were conducted in duplicate in polypropylene tubes. The typical incubation mixtures consisted of human or rat liver microsomes (0.5 mg protein/mL), compounds of interest (5 μM) and NADPH (1.0 mM) in a total volume of 200 μL potassium phosphate buffer (PBS, 100 mM, pH=7.4). Compounds were dissolved in DMSO and diluted with PBS such that the final concentration of DMSO was 0.05%. The enzymatic reactions were commenced with the addition of […] after a 3-min preincubation and incubated in a water bath open to the air at 37° C. Reactions were terminated at various time points (0, 5, 10, 15, 30, 60 min) by adding equal volume of ice-cold acetonitrile. The samples were stored at −80° C. until LC/MS/MS assays.
(§3) The concentrations of compounds in the incubation mixtures of human or rat liver microsomes were determined by a LC/MS/MS method. The ranges of the linearity in the concentration range were determined for each tested compounds.
(§4) A parallel incubation was performed using denatured microsomes as the negative control, and reactions were terminated at various time points (0, 15, 60 min) after incubation at 37° C.
(§5) Dextromethorphan (70 μM) was selected as the positive control, and reactions were terminated at various time points (0, 5, 10, 15, 30, 60 min) after incubation at 37° C. Both positive and negative control samples were included in each assay to ensure the integrity of the microsomal incubation system.
(§6) The concentrations of compounds in human or rat liver microsome incubations were plotted as a percentage of the relevant zero time point control for each reaction. The in vivo CLint were extrapolated (ref: Naritomi Y, Terashita S, Kimura S, Suzuki A, Kagayama A, Sugiyama Y. Prediction of human hepatic clearance from in vivo animal experiments and in vitro metabolic studies with liver microsomes from animals and humans. Drug Metabolism and Disposition 2001, 29: 1316-1324).

[5] = Compound stability in human liver microsomes; assay type: in vitro ADME; conditions: for half-life at 5 μM / CLint scaled at 5 μM: pH 7.4; for half-life at 5 μM: read-out: Human T1/2; for CLint scaled at 5 μM: human liver microsomes, in vivo CLint extrapolated
Method: as §2, §3, §4, §5, §6

[6] = tested on: U87MG glioblastoma cells; test: Tumor xenograft model (U87MG), tumor growth inhibition; assay type: in vivo, athymic nude mice; conditions: 12 days
Method: The efficacy of compounds disclosed herein was evaluated in a standard murine model of tumorigenesis. Human tumor cells (U87MG glioblastoma cells from ATCC) were expended in culture, harvested, and injected subcutaneously onto the rear flank of 6-7 week old female athymic nude mice (BALB/cA nu/nu, Hunan SLAC Laboratory Animal, Co.) (n=6-10 for vehicle group and for each dosing group). When tumors reached a volume of 100-250 mm^3, animals were randomly divided into vehicle control (for example, 5% DMSO+70% Captisol® (30%), 7% HCl (pH1), 18% Captisol® (30%); or 7% DMSO, 7% HCl (pH1), 70% Captisol® (30%), 16% Captisol® (30%), or the like) and compound groups. Subsequent administration of compound by oral gavage begins anywhere from day 0 to day 15 post tumor cell challenge and generally continues with once a day for the duration of the experiment.
Progression of tumor growth is assessed by tumor volumes and recorded as a function of time. The long (L) and short (W) axes of the subcutaneous tumors were measured with calipers twice weekly, and the tumor volume (TV) calculated as (L×W^2)/2). TGI was calculated from the difference between the median tumor volumes of vehicle-treated and drug-treated mice, expressed as a percentage of the median tumor volume of the vehicle-treated control group, by the following relation:
Initial statistical analysis is done by repeated measures analysis of variance (RMANOVA), followed by Scheffe psot hoc testing for multiple comparisons. Vehicle alone (5% DMSO+70% Captisol® (30%), 7% HCl (pH1), 18% Captisol® (30%); or 7% DMSO, 7% HCl (pH1), 70% Captisol® (30%), 16% Captisol® (30%), or the like) is the negative control.

[7] = rat liver microsomes 0.5 mg protein/mL, compound 5 μM, NADPH 1.0 mM, 37° C.
[8] = human liver microsomes 0.5 mg protein/mL, compound 5 μM, NADPH 1.0 mM, 37° C.

T1 sequence (P42336 whole entry): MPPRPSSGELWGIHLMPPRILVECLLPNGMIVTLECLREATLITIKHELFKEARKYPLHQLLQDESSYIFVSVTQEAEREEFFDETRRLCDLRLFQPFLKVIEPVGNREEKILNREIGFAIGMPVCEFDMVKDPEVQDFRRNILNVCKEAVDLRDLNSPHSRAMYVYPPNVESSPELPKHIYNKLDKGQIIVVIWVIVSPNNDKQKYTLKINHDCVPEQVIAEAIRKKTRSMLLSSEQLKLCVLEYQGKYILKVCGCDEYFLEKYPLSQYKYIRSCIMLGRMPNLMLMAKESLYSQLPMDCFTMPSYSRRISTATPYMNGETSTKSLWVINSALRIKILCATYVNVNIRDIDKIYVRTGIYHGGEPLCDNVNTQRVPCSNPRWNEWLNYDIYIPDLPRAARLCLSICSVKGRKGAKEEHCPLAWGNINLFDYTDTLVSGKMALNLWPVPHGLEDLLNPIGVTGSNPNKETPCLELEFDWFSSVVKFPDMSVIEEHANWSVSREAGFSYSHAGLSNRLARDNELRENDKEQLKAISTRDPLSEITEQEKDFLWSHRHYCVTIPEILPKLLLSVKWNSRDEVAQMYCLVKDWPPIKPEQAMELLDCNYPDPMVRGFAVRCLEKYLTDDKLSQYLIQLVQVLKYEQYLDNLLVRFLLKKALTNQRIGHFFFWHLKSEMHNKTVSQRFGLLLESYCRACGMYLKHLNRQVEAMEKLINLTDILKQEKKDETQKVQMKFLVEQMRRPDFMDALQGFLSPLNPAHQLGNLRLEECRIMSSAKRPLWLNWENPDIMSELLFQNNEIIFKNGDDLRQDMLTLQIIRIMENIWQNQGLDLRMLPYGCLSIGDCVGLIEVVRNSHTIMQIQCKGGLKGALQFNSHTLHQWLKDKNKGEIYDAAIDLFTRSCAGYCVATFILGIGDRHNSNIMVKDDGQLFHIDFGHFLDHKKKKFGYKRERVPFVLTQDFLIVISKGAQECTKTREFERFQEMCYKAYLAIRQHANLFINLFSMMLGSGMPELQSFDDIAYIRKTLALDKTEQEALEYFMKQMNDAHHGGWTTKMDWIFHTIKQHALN
T1 sequence (P27986 whole entry partner): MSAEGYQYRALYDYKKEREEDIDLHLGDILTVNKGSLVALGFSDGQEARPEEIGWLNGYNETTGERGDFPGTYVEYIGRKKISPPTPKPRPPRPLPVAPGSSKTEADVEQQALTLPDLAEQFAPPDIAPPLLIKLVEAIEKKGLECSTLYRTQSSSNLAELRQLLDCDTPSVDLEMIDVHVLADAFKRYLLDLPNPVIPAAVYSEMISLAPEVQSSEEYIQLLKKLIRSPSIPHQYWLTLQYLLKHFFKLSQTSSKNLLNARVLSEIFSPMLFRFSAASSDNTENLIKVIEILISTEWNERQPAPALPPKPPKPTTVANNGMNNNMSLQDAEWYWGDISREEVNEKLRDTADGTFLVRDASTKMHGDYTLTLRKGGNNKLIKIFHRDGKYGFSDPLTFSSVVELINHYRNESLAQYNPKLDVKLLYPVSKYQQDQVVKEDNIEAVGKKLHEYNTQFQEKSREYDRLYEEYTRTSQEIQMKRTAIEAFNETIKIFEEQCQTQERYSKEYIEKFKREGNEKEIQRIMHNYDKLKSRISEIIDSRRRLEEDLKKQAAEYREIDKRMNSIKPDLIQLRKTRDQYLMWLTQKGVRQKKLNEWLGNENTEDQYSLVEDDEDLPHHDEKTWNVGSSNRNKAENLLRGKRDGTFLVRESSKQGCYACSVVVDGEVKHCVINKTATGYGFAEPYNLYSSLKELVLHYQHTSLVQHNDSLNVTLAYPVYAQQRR

Molecule	IC50 [1] [nM]	F ([2]; iv dose 2 mg/kg) [%]	Cl/F ([2]; iv dosing 2 mg/kg) [mL/min/kg]	half-life at 5 μM [4, 7] [h]	CLint scaled at 5 μM [4] [mL/min/kg]	F ([2]; iv dose 1 mg/kg) [%]	Cl/F ([2]; iv dosing 1 mg/kg) [mL/min/kg]	AUC(0-t) ([2]; iv dosing 1 mg/kg) [ng·h/mL]	half-life ([2]; iv dosing 1 mg/kg) [h]	Vd ([2]; iv dosing 1 mg/kg) [L/kg]	half-life at 5 μM [5, 8] [h]	CLint scaled at 5 μM [5] [mL/min/kg]	further results
C#Cc1cnc2ccc(-c3cnc(Cl)c(NS(=O)(=O)c4ccc(F)cc4)c3)nn12 [Ex. 7, N-(2-chloro-5-(3-ethynylimidazo[1,2-b]pyridazin-6-yl)pyridin-3-yl)-4-fluorobenzenesulfonamide]	20	95.4	0.67										AUC(0-t) ([2]; iv dosing 2 mg/kg): 48100 ng·h/mL; half-life ([2]; iv dosing 2 mg/kg): 3.19 h; Vd ([2]; iv dosing 2 mg/kg): 0.17 L/kg; IC50 [3]: 24 nM
CC#Cc1cnc2ccc(-c3cnc(OC)c(NS(=O)(=O)c4ccc(F)cc4)c3)nn12 [Ex. 5, 4-fluoro-N-(2-methoxy-5-(3-(prop-1-yn-1-yl)imidazo[1,2-b]pyridazin-6-yl)pyridin-3-yl)benzenesulfonamide]	17			0.595	69.5	95.6	6.17	2550	8.74	2.29	1.14	25.4	
4-fluoro N (5 (3 (3 hydroxy-3-methylbut-1-yn-1-yl)-[1,2,4]-triazolo[4,3-b]pyridazin-6-yl)-2-methoxypyridin-3-yl)benzenesulfonamide [Ex. 12]	32	1.3	77.8										AUClast ([2]; iv dosing 2 mg/kg): 411 ng·h/mL; T1/2 ([2]; iv dosing 2 mg/kg): 4.71 h; Vss ([2]; iv dosing 2 mg/kg): 18.42 L/kg
COc1ncc(-c2ccc3ncc(C#N)n3n2)cc1NS(=O)(=O)c1ccc(F)cc1 [Ex. 6, N-(5-(3-cyanoimidazo[1,2-b]pyridazin-6-yl)-2-methoxypyridin-3-yl)-4-fluorobenzenesulfonamide]	4					123.7	5.5	2660	3.7	1.25			TGI % U87MG ([6]; 0.3 mg/kg oral gavage): 14%; TGI % U87MG ([6]; 1 mg/kg oral gavage): 41%; TGI % U87MG ([6]; 3 mg/kg oral gavage): 71%

Continued, in another order:

IC50 [1] [nM]	F ([2]; iv dose 2 mg/kg) [%]	Cl/F ([2]; iv dosing 2 mg/kg) [mL/min/kg]	half-life at 5 μM [4, 7] [h]	CLint scaled at 5 μM [4] [mL/min/kg]	F ([2]; iv dose 1 mg/kg) [%]	Cl/F ([2]; iv dosing 1 mg/kg) [mL/min/kg]	AUC(0-t) ([2]; iv dosing 1 mg/kg) [ng·h/mL]	half-life ([2]; iv dosing 1 mg/kg) [h]	Vd ([2]; iv dosing 1 mg/kg) [L/kg]	half-life at 5 μM [5, 8] [h]	CLint scaled at 5 μM [5] [mL/min/kg]	Molecule	further results
			1.59	26.1	95.8	1.5	11300	3.08	0.32	18.8	1.54	CC#Cc1cnc2ccc(-c3cnc(OC)c(NS(=O)(=O)c4ccc(F)cc4F)c3)nn12 [Ex. 13, 2,4-difluoro-N-(2-methoxy-5-(3-(prop-1-yn-1-yl)imidazo[1,2-b]pyridazin-6-yl)pyridin-3-yl)benzenesulfonamide]	
3	79.88	0.5	4.66	8.89						8.79	3.3	COc1ncc(-c2ccc3ncc(C#CC(C)O)n3n2)cc1NS(=O)(=O)c1ccc(F)cc1F (stereo not shown) [Ex. 10, 2,4-difluoro-N-(5-(3-(3-hydroxybut-1-yn-1-yl)imidazo[1,2-b]pyridazin-6-yl)-2-methoxypyridin-3-yl)benzenesulfonamide]	TGI % U87MG ([6]; 1 mg/kg oral gavage): 32%; TGI % U87MG ([6]; 3 mg/kg oral gavage): 44%; TGI % U87MG ([6]; 10 mg/kg oral gavage): 65%; AUC(0-t) ([2]; iv dosing 2 mg/kg): 67000 ng·h/mL; half-life ([2]; iv dosing 2 mg/kg): 4.27 h; Vd ([2]; iv dosing 2 mg/kg): 0.14 L/kg
41			0.666	62.1						1.87	15.5	COc1ncc(-c2ccc3ncc(C#CC(C)(C)O)n3n2)cc1NS(=O)(=O)c1ccc(F)cc1 [Ex. 4, 4-fluoro-N-(5-(3-(3-hydroxy-3-methylbut-1-yn-1-yl)imidazo[1,2-b]pyridazin-6-yl)-2-methoxypyridin-3-yl)benzenesulfonamide]	IC50 [3]: 19 nM
					5.9	30.2	561	0.15	0.19			COc1ncc(-c2ccc3nnc(C#CC(C)O)n3c2)cc1NS(=O)(=O)c1ccc(F)cc1F (stereo not shown) [Ex. 23, 2,4-difluoro N (5 (3 (3 hydroxybut-1-yn-1-yl)-[1,2,4]-triazolo[4,3-a]pyridin-6-yl)-2-methoxypyridin-3-yl)benzenesulfonamide]	Rat T1/2 [4, 7]: ∞; Human T1/2 [5, 8]: ∞
			4.66	8.87	123.1	0.5	38700	5.3	0.17	8.53	3.4	COc1ncc(-c2ccc3ncc(C#CC(C)(C)O)n3c2)cc1NS(=O)(=O)c1ccc(F)cc1F [Ex. 17, 2,4-difluoro-N-(5-(3-(3-hydroxy-3-methylbut-1-yn-1-yl)imidazo[1,2-a]pyridin-6-yl)-2-methoxypyridin-3-yl)benzenesulfonamide]	
8					115.8	0.33	40400	4.92	0.15			COc1ncc(-c2ccc3ncc(C#CC(C)(C)O)n3n2)cc1NS(=O)(=O)c1ccc(F)cc1F [Ex. 11, 2,4-difluoro N (5 (3 (3 hydroxy-3-methylbut-1-yn-1-yl)imidazo[1,2-b]pyridazin-6-yl)-2-methoxypyridin-3-yl)benzenesulfonamide]	
